Numbers after ± are expanded uncertainties.
Conditions: 101.33 kPa, Liquid, Vibrating tube method

mass density (293.16 K) [kg/m3]	mass density (298.15 K) [kg/m3]	mass density (303.15 K) [kg/m3]	mass density (308.15 K) [kg/m3]	mass density (313.15 K) [kg/m3]	mass density (318.15 K) [kg/m3]	mass density (323.18 K) [kg/m3]	mass density (298.14 K) [kg/m3]	mass density (303.14 K) [kg/m3]	mass density (308.14 K) [kg/m3]	mass density (313.14 K) [kg/m3]	mass density (318.14 K) [kg/m3]	mass density (323.14 K) [kg/m3]	mass density (328.14 K) [kg/m3]	mass density (333.14 K) [kg/m3]	mass density (338.14 K) [kg/m3]	mass density (343.14 K) [kg/m3]	mass density (293.15 K) [kg/m3]	SMILES
1240.25 ± 0.16	1236.81 ± 0.16	1233.39 ± 0.16	1229.98 ± 0.15	1226.59 ± 0.15	1223.22 ± 0.15	1219.84 ± 0.15	–	–	–	–	–	–	–	–	–	–	–	CCOS(=O)(=O)[O-].CCn1cc[n+](C)c1 [1-ethyl-3-methylimidazolium ethyl sulfate]
915.29 ± 2.9	–	–	–	–	–	–	912.33 ± 2.9	909.37 ± 2.9	906.41 ± 2.8	903.43 ± 2.8	900.5 ± 2.8	897.58 ± 2.8	894.67 ± 2.8	891.76 ± 2.8	888.84 ± 2.7	885.93 ± 2.7	–	CCCCCCCC[N+](C)(CCCCCCCC)CCCCCCCC.O=[N+]([O-])[O-] [N-methyl-N,N,N-trioctylammonium nitrate]
–	–	–	–	–	–	–	886.45 ± 2.7	883.43 ± 2.7	880.41 ± 2.7	877.37 ± 2.7	874.35 ± 2.6	871.36 ± 2.6	868.37 ± 2.6	865.37 ± 2.6	862.37 ± 2.6	859.36 ± 2.6	889.47 ± 2.7	CCCCCCCC[N+](C)(CCCCCCCC)CCCCCCCC.[Cl-] [N-methyl-N,N-dioctyl-1-octanaminium chloride]
